Measurements as given in patent EP1923473B1, “Bis-diglycolamides (BISDGA) as new extractants for lanthanides [Ln(III)] and actinides [An(III)] from aqueous high-level wastes” (Universidad Autónoma de Madrid, priority 2006, dated 2008).

What was measured:
Assay type in all cases: physicochemical
[1] = Extraction capability from aqueous 3 mol/L nitric acid; settings: 0.1 mol/L in TPH/1-octanol (50:50)%vol; aqueous [HNO3] 3 mol/L spiked with 152Eu(III) and 241Am(III)
Procedure: The organic solutions of the extractant compounds to be tested were prepared dissolving an amount of the extractant compound in the solvent considered in each case to reach the ligand concentration of 0.1 mol/L. The solvents considered were 1-octanol, n-heptane, n-dodecane, the industrial solvent "TPH" (hydrogenated tetrapropylene) used in the "La Hague" reprocessing plant of the COGEMA company (Compagnie générale des matières nucléaires) and different mixtures "TPH/1-octanol or n-dodecane/1-octanol".
Once said solution was obtained, its equilibration was carried out. To that end, 800 µL of the organic solution of the compound to be studied were contacted with 800 µL of nitric acid of 3 mol/L concentration and it was stirred vigorously in an oscillating shaker for 5 minutes. The phases were separated by centrifugation at 5000 rpm. 800 µL of the said organic phase were again contacted with 800 µL of nitric acid of 3 mol/L concentration for another 5 minutes of vigorous shaking. The phases were separated by centrifugation, the organic phase being considered to be equilibrated.
(§1) 600 µL of the organic phase of the compound to be studied, previously equilibrated, were contacted with 600 µL of aqueous phase consisting of a 3 mol/L nitric acid solution spiked with 600 Bq of ^152Eu and 600 Bq of ^241Am. It was stirred vigorously by means of an oscillating shaker for 30 minutes and the phases were separated by centrifugation at 5000 rpm. 400 µL were taken from each of the phases for determining the concentration of the radionuclides ^152Eu and ^241Am. This determination was carried out by means of the high energy gamma spectrometry technique with a high-purity Ge detector (Canberra Inc.), using the 122 keV line for the determination of ^152Eu concentration and the 59.5 keV line for the determination of ^241Am concentration. The distribution coefficient was calculated by relating the concentration of each of the radionuclides in the organic phase and in the aqueous phase, according to the expression: DM = ([M]org)/([M]aq) [formula]
(§2) The distribution coefficients and the selectivity factor of each of them were determined as indicated in sections A) to C).

[2] = Eu/Am selectivity factor in extraction from 3 mol/L nitric acid; settings: 0.1 mol/L in TPH/1-octanol (50:50)%vol; aqueous [HNO3] 3 mol/L
Procedure: as §1
The Eu/Am selectivity factor was calculated by relating the corresponding distribution coefficients of Eu with those of Am in the same experimental conditions: SFEu/Am = DEu /DAm [formula]
as §2

[3] = Re-extraction with diluted nitric acid solutions; settings: 0.1 mol/L in TPH/1-octanol (95:5)%vol; for re-extraction steps necessary: 0.016 mol/L of stable Eu(III) present
Procedure: 0.1 mol/L samples of compound 4 in a "TPH/1-octanol (95:5)%vol" mixture were prepared. Extractions of Am(III) and Eu(III) were carried out from 3 mol/L nitric acid solutions containing only the radionuclides ^152Eu and ^241Am and 3 mol/L nitric acid solutions containing the radionuclides ^152Eu and ^241Am and 0.016 mol/L of stable Eu(III), simulating the total concentration of Ln(III) in a HLLW from the PUREX process. Once the extraction process was carried out, a washing step with a 1 mol/L nitric acid solution was carried out. Then, different re-extraction steps were carried out with 0.01 mol/L nitric acid solutions, simulating a continuous process. The evolution of the concentration of Am(III) and Eu(III) in the organic phase in the different extraction, scrubbing and re-extraction steps is shown in Figure 14.
Nevertheless, it is possible to regenerate the organic solutions of compound 18 for subsequent extraction cycles in an industrial continuous process.

Hydrolytic stability = settings: 0.1 mol/L in n-dodecane/1-octanol (95:5)%vol; permanent contact with 3 mol/L nitric acid
Procedure: The organic solutions of the compounds to be tested were prepared and equilibrated with 3 mol/L nitric acid, as has been indicated in sections A) and B).
Then, 700 µL of the equilibrated organic phase were put in vials of an approximate volume of 2 mL and were contacted with 700 µL of 3 mol/L nitric acid. They were stirred vigorously in an oscillating shaker for periods of 7, 15, 24, 36, 42, 50 and 66 days. After each permanent contact period with the nitric acid aqueous phase, the extraction capability of the organic solution was evaluated, taking 600 µL of the corresponding organic phase and contacting it with 600 µL of aqueous phase formed by a 3 mol/L nitric acid solution spiked with 600 Bq of ^152Eu and with 600 Bq of ^241Am. It was stirred vigorously by means of an oscillating shaker for 15 minutes. The separation of the phases was carried out by centrifugation at 5000 rpm. 400 µL of each of the phases were taken for the determination of the concentration of ^152Eu and ^241Am, as in section C).
After the permanent contact periods with the 3 mol/L nitric acid solution, the extraction capability of the organic solutions of both compounds was evaluated with 3 mol/L nitric acid solutions containing 600 Bq of ^152 Eu and 600 Bq of ^241Am.

Substance: 2-Dioctylcarbamoylmethoxy-N-[3-[3-(2-dioctylcarbamoyl-methoxyacetylamino)propoxy]propyl]acetamide [Compound 18]
- DAm [1]: 29
- DEu [1]: 177
- SFEu/Am [2]: 6.0
- re-extraction steps necessary ([3]; 0.01 mol/L nitric acid): six re-extraction steps
- re-extraction steps for complete re-extraction ([3]; only the radionuclides 152Eu and 241Am present, 0.01 mol/L nitric acid): four re-extraction steps
- stability against hydrolysis (Hydrolytic stability): very stable against hydrolysis

Substance: 2-Dioctylcarbamoylmethoxy-N-[3-[(2-dioctylcarbamoyl-methoxy-acetylamino)methyl]benzyl]acetamide [Compound 4]
- DAm [1]: 33
- DEu [1]: 141
- SFEu/Am [2]: 4.3
- re-extraction steps necessary ([3]; 0.01 mol/L nitric acid): an additional re-extraction step is necessary
- Am(III) and Eu(III) recovered from the organic phase ([3]; tracers only (152Eu and 241Am), after three re-extraction steps with 0.01 mol/L nitric acid): more than 99.9%
- stability against hydrolysis (Hydrolytic stability): very stable against hydrolysis
